# Measured values published in patent US9770421B2, “Uses for idebenone and related benzoquinones in metabolic disorders and other PPAR α/γ related diseases and conditions” (INDANIO BIOSCIENCE INC., priority 2013, dated 2017).
# “Also recorded” adds a separate entry of the source.
# Key:
# PPARγ LBD = target: T1, PPARγ LBD (Homo sapiens, UniProt P37231); experiment: In vitro co-purification with His-tagged PPARγ LBD, MS; assay type: binding; details: incubated with 10 μM idebenone
# T1 construct: His-tagged PPARα, δ and γ LBDs were expressed in bacteria, Ni-NTA purified; His; made in house; host or cells: bacteria (E. coli)
# T1 sequence (P37231 238-503 limits assumed): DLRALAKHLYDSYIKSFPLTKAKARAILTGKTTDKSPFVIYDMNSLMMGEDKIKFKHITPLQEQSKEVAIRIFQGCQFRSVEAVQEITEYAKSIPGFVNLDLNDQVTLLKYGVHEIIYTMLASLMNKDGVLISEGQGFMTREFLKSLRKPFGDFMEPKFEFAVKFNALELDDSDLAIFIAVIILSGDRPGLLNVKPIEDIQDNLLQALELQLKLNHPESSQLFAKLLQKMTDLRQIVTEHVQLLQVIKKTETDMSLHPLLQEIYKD
# Procedure: To see if idebenone can bind to directly to other PPAR LBDs, His-tagged PPARα, δ and γ LBDs were expressed in bacteria, Ni-NTA purified and incubated with 10 μM idebenone. After several washes in a 10 kDa cut off Amicon centrifuge filter (Millipore), lipids were extracted and analyzed by MS.
# [1] = target: T2, affinity-tagged PPARγ expressed in zebrafish (Homo sapiens, UniProt P37231); experiment: Affinity purification of PPARγ from LT fish and LC-MRM of bound drugs; assay type: binding; details: 1 μM rosiglitazone or 4 μM idebenone; purification in 1M NaCl
# T2 construct: pLT PPARα (aa 178-468) and pLT PPAR γ (aa 188-477) lines; expressed in transfected cells; host or cells: transgenic zebrafish embryos (heat-induced ligand-trap line)
# T2 sequence (P37231 188-477 isoform P37231-2): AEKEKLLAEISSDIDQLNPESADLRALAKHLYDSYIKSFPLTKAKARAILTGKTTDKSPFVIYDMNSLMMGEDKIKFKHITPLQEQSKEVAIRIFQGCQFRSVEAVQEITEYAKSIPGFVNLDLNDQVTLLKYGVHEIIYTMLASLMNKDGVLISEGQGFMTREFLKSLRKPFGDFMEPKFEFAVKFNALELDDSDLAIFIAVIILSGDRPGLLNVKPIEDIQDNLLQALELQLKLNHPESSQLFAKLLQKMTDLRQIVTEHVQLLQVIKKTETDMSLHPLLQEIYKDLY
# Procedure: Following purification, bound small molecules were extracted using 2:1 chloroform/methanol and subjected to LC-MRM (liquid chromatogaphy—multiple reaction monitoring) mass spectrometry to identify co-purifying small molecules.
# 1 dpf zebrafish embryos were heat induced for 1 hr in pre-heated embryo water 37° C. (+/− drugs). […] Purification steps were performed at 4° C. Frozen embryos were homogenized in lysis buffer (50 mM Hepes ph7.5, 1M NaCl, 0.1% Triton X-100, 1 mM DTT, 1 mM EDTA, 1 ppm BHT, Complete protease inhibitor cocktail tablet (Roche, 1 tablet/50 ml buffer)) at a ratio of 4 ml lysis buffer/gram embryos. After 20 min incubation on ice, the lysate was centrifuged at 14000×g for 15 mins. […] The beads were then transferred to a 2 ml-gravity disposable column and washed 3 times with 6 column of Last Wash Buffer (800 mM ammonium acetate pH7.5, 1 ppm BHT). The beads were then transferred to a glass vial and the samples prepared for mass spectrometry.
# The chloroform phase was collected and dried under a stream of nitrogen gas. The dried residue was reconstituted in 10% acetonitrile prior to LC-MRM. […]
# The purified PPARγ or control purifications were then extracted with 2:1 chlorofonailmethanol, and the solvent phase analyzed by mass spectrometry.
# hPPARδ/β = target: T3, hPPARδ/β (Homo sapiens, UniProt Q03181); experiment: HEK293 cell culture luciferase reporter assay, hPPARδ/β; details: HEK293
# T3 sequence (Q03181 143-441): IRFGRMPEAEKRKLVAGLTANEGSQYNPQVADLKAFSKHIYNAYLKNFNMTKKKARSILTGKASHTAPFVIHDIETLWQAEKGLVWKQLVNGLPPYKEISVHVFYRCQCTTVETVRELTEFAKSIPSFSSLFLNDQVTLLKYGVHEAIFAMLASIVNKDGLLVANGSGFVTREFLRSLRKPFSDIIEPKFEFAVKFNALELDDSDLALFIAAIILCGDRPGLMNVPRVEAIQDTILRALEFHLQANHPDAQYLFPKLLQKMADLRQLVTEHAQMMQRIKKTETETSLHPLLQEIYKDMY
# C57Bl/6 db/db mice = experiment: db/db mouse study (NAFLD features); assay type: in vivo; details: for Decrease in liver weight in comparison to vehicle treated mice: 3 weeks
# Procedure: Db/db study: Forty male C57Bl/6 db/db mice (called B6.BKS(D)-Lepr db/J) were ordered from Jackson Laboratories (#000697) at 7 weeks of age. Mice were housed individually with free access to food (2016 Teklad Global 16% Protein Rodent Diet) and water on a 14 hour light/dark cycle (6 a.m. to 8 p.m. light). […] Food was exchanged on a daily bases. Harlan corn cob bedding was provided and was changed every week or as needed. Following a 1 week acclimation, 32 mice were chosen based on desired body weight range. Remaining mice were euthanized. Mice were randomized by body weight into four treatment groups (n=8) by body weight. Dosing occurred for 21 days. Mice were euthanized by CO2 euthanasia and livers were fixed in neutral buffered formalin (NBF) for 24 h, followed by a one day fixation in 30% Sucrose and 10% Sucrose. Oil O Red staining was performed through the Pathology Research Program at the University Health Network in Toronto [46]. [table] 100 mg of db/db livers were homogenized in RIPA buffer and protein concentration was quantified using a BCA protein assay kit (Cell signalling #7780) followed by measurement of ‘Thiobarbituric Acid Reactive Substances’ (TBARS) using a TBARS assay kit (Cayman Chemicals #10009055). Total RNA was extracted from 100 mg of db/db livers using RNA STAT-60 (Tel-Test, Inc.), treated with DNase I (RNase-free, Roche), and reverse transcribed into cDNA with random hexamers using the High Capacity Reverse transcription system (Applied Biosystems, ABI). Primers used are shown below and were validated as previously described. Real-time QPCR reactions were performed on an ABI 7900 in 384-well plates containing 12.5 ng cDNA, 150 nM of each primer, and 5 μl 2×SYBR Green PCR Master Mix (ABI) in a 10 μl total volume. Relative mRNA levels were calculated using the comparative Ct method normalized to cyclophilin mRNA.
# [2] = test system: GFP-expressing leukocytes recruited in response to CuSO4; experiment: Zebrafish inflammation assay (CuSO4); assay type: in vivo
# Procedure: Assay was performed as described in [47]. Fifteen dechorionated 55 hpf (hours post fertilization) embryos were transferred in each well of 6-well plates in 6 ml of embryo water. Idebenone was added at increasing concentrations (0.25, 0.75, 1.5, 3 and 5 μM). Embryos were incubated in the dark for 1 hr at 28 C, followed by a second 40 min incubation with copper sulfate (CuSO4) at a final concentration of 10 μM at 28 C in the dark. Embryos were then transferred to Eppendorf tubes and fixed in 4% paraformaldehyde in 1×PBS overnight at 4 C in the dark. Numbers of GFP+ cells were counted along the lateral line/neuromast clusters.
# Previous studies have shown that PPAR agonists have anti-inflammatory properties, and can be used to treat a variety of inflammatory responses. To test if this is also true for idebenone, we used a zebrafish model of inflammation. Exposure of fish larvae to copper sulfate causes non-invasive damage to neuromast cells, which form external clusters along the lateral midline. This inflammation can be visualized via the recruitment of GFP-expressing leukocytes. As expected, this recruitment of GFP positive cells could be alleviated by addition of the known anti-inflammatory agent ibuprofen (FIG. 11).
compound,measurement,setting,value
"COC1=C(OC)C(=O)C(CCCCCCCCCCO)=C(C)C1=O [Idebenone, 2-(10-hydroxydecyl)-5,6-dimethoxy-3-methyl-2,5-cyclohexadiene-1,4-dione]","Binding to PPARγ LBD (co-purification, MS)",PPARγ LBD,strong binding
same,Co-purification with PPARγ from LT fish (LC-MRM),[1],yielded idebenone in the affinity purification eluate; also recorded: co-purify with affinity-tagged PPARγ
same,Response of PPARδ/β in cultured cells,hPPARδ/β,no response
same,Histological NAFLD features of liver,C57Bl/6 db/db mice; 3 weeks in food,reversed these histological NAFLD
same,Decrease in liver weight in comparison to vehicle treated mice,C57Bl/6 db/db mice; 900 mpk in food,3%
same,Decrease in liver weight in comparison to vehicle treated mice,C57Bl/6 db/db mice; 1800 mpk in food,6.5%
same,Liver ADFP mRNA expression (QPCR),C57Bl/6 db/db mice; 21 days,down regulated
same,Liver PLIN4 mRNA expression (QPCR),C57Bl/6 db/db mice; 21 days,down regulated
same,Liver lipid content (Oil Red O staining),"C57Bl/6 db/db mice; 21 days, 900/1800 mpk idebenone, 10 mpk rosiglitazone",significant dose-dependent decrease in fat; also recorded: significant dose dependent decrease in fat
same,Liver lipid peroxides (TBARS),"C57Bl/6 db/db mice; liver homogenates, 21 days",reduced
same,Recruitment of GFP positive leukocytes (anti-inflammatory activity),"[2]; 10 μM CuSO4, 55 hpf embryos",robust anti-inflammatory agent; also recorded: anti-inflammatory activity
same,Concentration at which anti-inflammatory activity is detectable,[2]; idebenone 0.25-5 μM tested,sub micromolar
